# Measured values taken from patent US20260216196A1, “IMIDAZO[1,2-A]PYRIDINE AND IMIDAZO[1,2-A]PYRAZINE DERIVATIVES AS MLLT1 AND MLLT3 INHIBITORS” (DARK BLUE THERAPEUTICS LTD., priority 2022, published 2026).
# Experiments:
# [1] = biological target: MLLT1 (Homo sapiens, UniProt Q03111); experiment: biochemical; conditions: MLLT1 assay IC50 (nM), HTRF, 6His tagged MLLT1, biotinylated H3K9cro peptide; compound 20 μM to 20 nM, 11 data points in duplicate
# [2] = biological target: MLLT3 (Homo sapiens, UniProt P42568); experiment: HTRF IC50 determination assay, MLLT3 / H3K9cro peptide displacement; conditions: MLLT3 assay IC50 (nM), 6His tagged MLLT3, biotinylated H3K9cro peptide, compound 20 μM to 20 nM, 11 data points in duplicate
# MLLT3, sequence (P42568 whole entry): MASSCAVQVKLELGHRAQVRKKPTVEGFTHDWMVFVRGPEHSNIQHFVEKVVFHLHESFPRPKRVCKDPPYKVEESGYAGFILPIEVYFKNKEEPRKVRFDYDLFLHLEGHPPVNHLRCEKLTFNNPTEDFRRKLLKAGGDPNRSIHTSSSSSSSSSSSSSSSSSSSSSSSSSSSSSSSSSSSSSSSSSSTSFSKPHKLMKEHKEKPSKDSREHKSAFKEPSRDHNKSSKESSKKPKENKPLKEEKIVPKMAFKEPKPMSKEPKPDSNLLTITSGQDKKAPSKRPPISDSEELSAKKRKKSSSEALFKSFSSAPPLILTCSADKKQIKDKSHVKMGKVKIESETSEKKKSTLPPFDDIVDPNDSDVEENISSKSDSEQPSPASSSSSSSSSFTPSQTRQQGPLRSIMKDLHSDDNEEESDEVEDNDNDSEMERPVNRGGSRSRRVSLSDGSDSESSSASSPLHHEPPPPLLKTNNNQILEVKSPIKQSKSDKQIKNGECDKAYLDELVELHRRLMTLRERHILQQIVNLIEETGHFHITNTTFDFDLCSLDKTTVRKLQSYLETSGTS
# MLLT1, sequence (Q03111 whole entry): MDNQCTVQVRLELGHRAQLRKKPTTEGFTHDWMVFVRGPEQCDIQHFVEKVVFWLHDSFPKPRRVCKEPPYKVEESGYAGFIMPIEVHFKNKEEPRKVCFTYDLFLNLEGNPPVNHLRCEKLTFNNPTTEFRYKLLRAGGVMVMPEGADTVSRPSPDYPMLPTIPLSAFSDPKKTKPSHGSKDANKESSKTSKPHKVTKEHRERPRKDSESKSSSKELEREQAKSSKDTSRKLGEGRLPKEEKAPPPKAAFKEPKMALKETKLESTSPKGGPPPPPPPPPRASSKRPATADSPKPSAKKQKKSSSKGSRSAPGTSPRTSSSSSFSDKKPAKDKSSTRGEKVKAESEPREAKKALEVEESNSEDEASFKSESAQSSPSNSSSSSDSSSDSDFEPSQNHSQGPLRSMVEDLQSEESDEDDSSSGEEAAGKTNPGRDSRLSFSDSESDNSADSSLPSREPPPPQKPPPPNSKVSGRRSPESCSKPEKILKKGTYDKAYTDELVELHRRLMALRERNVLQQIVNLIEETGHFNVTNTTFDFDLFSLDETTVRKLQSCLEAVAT
Structure (SMILES),IC50 [1] [nM],IC50 [2] [nM]
"CN1CCCC1c1cn2cc(NC(=O)c3ccc4ncccc4n3)ccc2n1 (racemic) [Example 10, rac-N-[2-(1-methylpyrrolidin-2-yl)imidazo[1,2-a]pyridin-6-yl]-1,5-naphthyridine-2-carboxamide]",1500 to 20000,> 20000
"COc1cc(NC(=O)c2ccc3c(C)nn(C)c3c2)cn2cc(C3CCCN3C)nc12 (racemic) [Example 1, rac-N-[8-methoxy-2-(1-methylpyrrolidin-2-yl)imidazo[1,2-a]pyridin-6-yl]-1,3-dimethyl-indazole-6-carboxamide]",150 to 1500,150 to 1500
"CN1CCCC1c1cn2cc(NC(=O)c3ccc4ncoc4c3)ccc2n1 (racemic) [Example 37, rac-N-[2-(1-methylpyrrolidin-2-yl)imidazo[1,2-a]pyridin-6-yl]-1,3-benzoxazole-6-carboxamide]",150 to 1500,1500 to 20000
"CN1CCCC1c1cn2cc(NC(=O)c3ccc4nc[nH]c4n3)ccc2n1 (racemic) [Example 36, rac-N-[2-(1-methylpyrrolidin-2-yl)imidazo[1,2-a]pyridin-6-yl]-3H-imidazo[4,5-b]pyridine-5-carboxamide]",1500 to 20000,> 20000
"CN1CCCC1c1cn2cc(NC(=O)c3ccc(-c4ncon4)cc3)ccc2n1 (racemic) [Example 51, rac-N-[2-(1-methylpyrrolidin-2-yl)imidazo[1,2-a]pyridin-6-yl]-4-(1,2,4-oxadiazol-3-yl)benzamide]",150 to 1500,1500 to 20000
"CN1CCCC1c1cn2cc(NC(=O)c3cn4ccncc4n3)ccc2n1 (racemic) [Example 34, rac-N-[2-(1-methylpyrrolidin-2-yl)imidazo[1,2-a]pyridin-6-yl]imidazo[1,2-a]pyrazine-2-carboxamide]",1500 to 20000,1500 to 20000
"CCc1nn(C)c2cc(C(=O)Nc3cn4cc([C@H]5CCCN5C)nc4cn3)ccc12 [Example 72, 3-ethyl-1-methyl-N-{2-[(2R)-1-methylpyrrolidin-2-yl]imidazo[1,2-a]pyrazin-6-yl}-1H-indazole-6-carboxamide]",150 to 1500,150 to 1500
"Cc1nc(NC(=O)c2cc3c(C)nc(C)n3cc2F)cn2cc([C@H]3CCCN3C)nc12 [Example 94, 6-fluoro-1,3-dimethyl-N-{8-methyl-2-[(2R)-1-methylpyrrolidin-2-yl]imidazo[1,2-a]pyrazin-6-yl}imidazo[1,5-a]pyridine-7-carboxamide]",150 to 1500,150 to 1500
"CN1CCCC1c1cn2cc(NC(=O)c3cnc4cc(Cl)ccc4c3)ccc2n1 (racemic) [Example 9, rac-7-chloro-N-[2-(1-methylpyrrolidin-2-yl)imidazo[1,2-a]pyridin-6-yl]quinoline-3-carboxamide]",1500 to 20000,1500 to 20000
"CCN1CCCC1c1cn2cc(NC(=O)c3ccc4c(C)nn(C)c4c3)ncc2n1 (single isomer, unassigned) [Example 87, N-{2-[(rel-2R)-1-ethylpyrrolidin-2-yl]imidazo[1,2-a]pyrazin-6-yl}-1,3-dimethylindazole-6-carboxamide]",150 to 1500,150 to 1500
"CN1CCCC1c1cn2cc(NC(=O)c3ccc4c(cnn4C)c3Cl)ccc2n1 (racemic) [Example 52, rac-4-chloro-1-methyl-N-[2-(1-methylpyrrolidin-2-yl)imidazo[1,2-a]pyridin-6-yl]-1H-indazole-5-carboxamide]",1500 to 20000,> 20000
"CN1CCCC1c1cn2cc(NC(=O)c3ccc(-c4cncs4)cc3F)ccc2n1 (single isomer, unassigned) [Example 8]",150 to 1500,150 to 1500
"COC1CC(c2cn3cc(NC(=O)c4ccc5c(cnn5C)c4)ccc3n2)N(C)C1 (racemic) [Example 65, rac-N-[2-(4-methoxy-1-methylpyrrolidin-2-yl)imidazo[1,2-a]pyridin-6-yl]-1-methyl-1H-indazole-5-carboxamide]",150 to 1500,1500 to 20000
"Cc1nc(NC(=O)c2cc3cnn(C)c3cc2Cl)cn2cc([C@H]3CCCN3C)nc12 [Example 92, (R)-6-chloro-1-methyl-N-(8-methyl-2-(1-methylpyrrolidin-2-yl)imidazo[1,2-a]pyrazin-6-yl)-1H-indazole-5-carboxamide]",1500 to 20000,1500 to 20000
"Cc1nn(C)c2cc(C(=O)Nc3cn4cc([C@H]5CCCN5C)nc4cn3)ccc12 [Example 70, 1,3-dimethyl-N-{2-[(2R)-1-methylpyrrolidin-2-yl]imidazo[1,2-a]pyrazin-6-yl}-1H-indazole-6-carboxamide]",150 to 1500,150 to 1500
"CN1CC2(CC2)C[C@@H]1c1cn2cc(NC(=O)c3ccc4c(cnn4C)c3)ncc2n1 [Example 102, 1-methyl-N-[2-[(6R)-5-methyl-5-azaspiro[2.4]heptan-6-yl]imidazo[1,2-a]pyrazin-6-yl]indazole-5-carboxamide]",< 150,150 to 1500
"Cc1nn(C)c2cc(C(=O)Nc3cn4cc([C@@H]5CCCN5C)nc4cn3)ccc12 (single isomer, unassigned) [Example 69]",1500 to 20000,1500 to 20000

Structure (SMILES),IC50 [1] [nM],IC50 [2] [nM]
"CN1CCCC1c1cn2cc(NC(=O)c3ccc4[nH]ccc4c3F)ccc2n1 (racemic) [Example 53, rac-4-fluoro-N-[2-(1-methylpyrrolidin-2-yl)imidazo[1,2-a]pyridin-6-yl]-1H-indole-5-carboxamide]",150 to 1500,150 to 1500
"CN1CCCC1c1cn2cc(NC(=O)c3ccc4c(c3)nnn4C3CCCCC3)ccc2n1 (racemic) [Example 45, rac-1-cyclohexyl-N-[2-(1-methylpyrrolidin-2-yl)imidazo[1,2-a]pyridin-6-yl]-1H-1,2,3-benzotriazole-5-carboxamide]",150 to 1500,150 to 1500
"CN1CCCC1c1cn2cc(NC(=O)c3ccn4cnnc4c3)ccc2n1 (racemic) [Example 33, rac-N-[2-(1-methylpyrrolidin-2-yl)imidazo[1,2-a]pyridin-6-yl]-[1,2,4]triazolo[4,3-alpyridine-7-carboxamide]",150 to 1500,1500 to 20000
"CCC1CC(c2cn3cc(NC(=O)c4ccc5c(C)nn(C)c5c4)ncc3n2)N(C)C1 (single isomer, unassigned) [Example 80, N-{2-[4-ethyl-1-methylpyrrolidin-2-yl]imidazo[1,2-a]pyrazin-6-yl}-1,3-dimethyl-1H-indazole-6-carboxamide]",–,< 150
"CN1CCCC1(C)c1cn2cc(NC(=O)c3ccc4c(cnn4C)c3)ccc2n1 (racemic) [Example 4, rac-N-[2-(1,2-dimethylpyrrolidin-2-yl)imidazo[1,2-a]pyridin-6-yl]-1-methylindazole-5-carboxamide]",150 to 1500,1500 to 20000
"COc1ccc2nc(C(=O)Nc3ccc4nc(C5CCCN5C)cn4c3)sc2c1 (racemic) [Example 17, rac-6-methoxy-N-[2-(1-methylpyrrolidin-2-yl)imidazo[1,2-a]pyridin-6-yl]-1,3-benzothiazole-2-carboxamide]",1500 to 20000,1500 to 20000
"CCc1nn(C)c2ccc(C(=O)Nc3ccc4nc(C5CCCN5C)cn4c3)cc12 (racemic) [Example 61, rac-3-ethyl-1-methyl-N-[2-(1-methylpyrrolidin-2-yl)imidazo[1,2-a]pyridin-6-yl]-1H-indazole-5-carboxamide]",–,150 to 1500
"CN1C[C@H](F)C[C@@H]1c1cn2cc(NC(=O)c3ccc4c(cnn4C)c3)ncc2n1 [Example 105, N-(2-((2R,4R)-4-fluoro-1-methylpyrrolidin-2-yl)imidazo[1,2-a]pyrazin-6-yl)-1-methyl-1H-indazole-5-carboxamide]",150 to 1500,150 to 1500
"CC1CCC(c2cn3cc(NC(=O)c4ccc5c(cnn5C)c4)ccc3n2)N1C (racemic) [Example 63, rac-N-[2-(1,5-dimethylpyrrolidin-2-yl)imidazo[1,2-a]pyridin-6-yl]-1-methyl-1H-indazole-5-carboxamide]",1500 to 20000,1500 to 20000
"Cc1nc(NC(=O)c2cc3cnn(C)c3cc2F)cn2cc([C@H]3CCCN3C)nc12 [Example 91, 6-fluoro-1-methyl-N-{8-methyl-2-[(2R)-1-methylpyrrolidin-2-yl]imidazo[1,2-a]pyrazin-6-yl}indazole-5-carboxamide]",< 150,150 to 1500
CN1CCCC1c1cn2cc(NC(=O)c3ccc4scnc4c3)ccc2n1 (stereo not shown) [Example 41],150 to 1500,150 to 1500
"CN1CCCC1c1cn2cc(NC(=O)c3cccc(-n4cccn4)c3)ccc2n1 (racemic) [Example 43, rac-N-[2-(1-methylpyrrolidin-2-yl)imidazo[1,2-a]pyridin-6-yl]-3-(1H-pyrazol-1-yl)benzamide]",150 to 1500,1500 to 20000
"CN1CCCC1c1cn2cc(NC(=O)c3ccc(-n4cccn4)nc3)ccc2n1 (racemic) [Example 13, rac-N-[2-(1-methylpyrrolidin-2-yl)imidazo[1,2-a]pyridin-6-yl]-6-(1H-pyrazol-1-yl)pyridine-3-carboxamide]",1500 to 20000,1500 to 20000
"CCC1CC(c2cn3cc(NC(=O)c4ccc5c(C)nn(C)c5c4)ncc3n2)N(C)C1 (single isomer, unassigned) [Example 78, N-{2-[4-ethyl-1-methylpyrrolidin-2-yl]imidazo[1,2-a]pyrazin-6-yl}-1,3-dimethyl-1H-indazole-6-carboxamide]",–,150 to 1500
"CCC1CC(c2cn3cc(NC(=O)c4ccc5c(C)nn(C)c5c4)ncc3n2)N(C)C1 (single isomer, unassigned) [Example 79, N-{2-[4-ethyl-1-methylpyrrolidin-2-yl]imidazo[1,2-a]pyrazin-6-yl}-1,3-dimethyl-1H-indazole-6-carboxamide]",–,< 150
"CCC1CC(c2cn3cc(NC(=O)c4ccc5c(C)nn(C)c5c4)ncc3n2)N(C)C1 (single isomer, unassigned) [Example 77, N-{2-[4-ethyl-1-methylpyrrolidin-2-yl]imidazo[1,2-a]pyrazin-6-yl}-1,3-dimethyl-1H-indazole-6-carboxamide]",–,1500 to 20000
